Reference: ChEMBL document CHEMBL1201862, “PubChem BioAssay data set” (2004)
Activity calls are given as the source filed them. Cut-off read from the data, not from the text of the source: active = EC50 of 10 µM or less and inactive = more.

What was measured:
Mucolipin-3 = Mucolipin-3 (Homo sapiens, UniProt Q8TDD5); assay: Fluorescence counterscreen assay for […] agonists: dose response cell-based high-throughput screening assay to identify agonists of the transient receptor potential channel ML3 (TRPML3). [Related pubchem assays: 1424, 1448 ]; type: functional
Ion channel NompC = Ion channel NompC (Danio rerio, UniProt Q7T1G6); assay: Dose response cell-based high-throughput screening assay for agonists of the transient receptor potential channel N1 (TRPN1). [Related pubchem assays (depositor defined):AID1424, AID1448]; type: functional
Ion channel NompC, sequence (Q7T1G6 whole entry): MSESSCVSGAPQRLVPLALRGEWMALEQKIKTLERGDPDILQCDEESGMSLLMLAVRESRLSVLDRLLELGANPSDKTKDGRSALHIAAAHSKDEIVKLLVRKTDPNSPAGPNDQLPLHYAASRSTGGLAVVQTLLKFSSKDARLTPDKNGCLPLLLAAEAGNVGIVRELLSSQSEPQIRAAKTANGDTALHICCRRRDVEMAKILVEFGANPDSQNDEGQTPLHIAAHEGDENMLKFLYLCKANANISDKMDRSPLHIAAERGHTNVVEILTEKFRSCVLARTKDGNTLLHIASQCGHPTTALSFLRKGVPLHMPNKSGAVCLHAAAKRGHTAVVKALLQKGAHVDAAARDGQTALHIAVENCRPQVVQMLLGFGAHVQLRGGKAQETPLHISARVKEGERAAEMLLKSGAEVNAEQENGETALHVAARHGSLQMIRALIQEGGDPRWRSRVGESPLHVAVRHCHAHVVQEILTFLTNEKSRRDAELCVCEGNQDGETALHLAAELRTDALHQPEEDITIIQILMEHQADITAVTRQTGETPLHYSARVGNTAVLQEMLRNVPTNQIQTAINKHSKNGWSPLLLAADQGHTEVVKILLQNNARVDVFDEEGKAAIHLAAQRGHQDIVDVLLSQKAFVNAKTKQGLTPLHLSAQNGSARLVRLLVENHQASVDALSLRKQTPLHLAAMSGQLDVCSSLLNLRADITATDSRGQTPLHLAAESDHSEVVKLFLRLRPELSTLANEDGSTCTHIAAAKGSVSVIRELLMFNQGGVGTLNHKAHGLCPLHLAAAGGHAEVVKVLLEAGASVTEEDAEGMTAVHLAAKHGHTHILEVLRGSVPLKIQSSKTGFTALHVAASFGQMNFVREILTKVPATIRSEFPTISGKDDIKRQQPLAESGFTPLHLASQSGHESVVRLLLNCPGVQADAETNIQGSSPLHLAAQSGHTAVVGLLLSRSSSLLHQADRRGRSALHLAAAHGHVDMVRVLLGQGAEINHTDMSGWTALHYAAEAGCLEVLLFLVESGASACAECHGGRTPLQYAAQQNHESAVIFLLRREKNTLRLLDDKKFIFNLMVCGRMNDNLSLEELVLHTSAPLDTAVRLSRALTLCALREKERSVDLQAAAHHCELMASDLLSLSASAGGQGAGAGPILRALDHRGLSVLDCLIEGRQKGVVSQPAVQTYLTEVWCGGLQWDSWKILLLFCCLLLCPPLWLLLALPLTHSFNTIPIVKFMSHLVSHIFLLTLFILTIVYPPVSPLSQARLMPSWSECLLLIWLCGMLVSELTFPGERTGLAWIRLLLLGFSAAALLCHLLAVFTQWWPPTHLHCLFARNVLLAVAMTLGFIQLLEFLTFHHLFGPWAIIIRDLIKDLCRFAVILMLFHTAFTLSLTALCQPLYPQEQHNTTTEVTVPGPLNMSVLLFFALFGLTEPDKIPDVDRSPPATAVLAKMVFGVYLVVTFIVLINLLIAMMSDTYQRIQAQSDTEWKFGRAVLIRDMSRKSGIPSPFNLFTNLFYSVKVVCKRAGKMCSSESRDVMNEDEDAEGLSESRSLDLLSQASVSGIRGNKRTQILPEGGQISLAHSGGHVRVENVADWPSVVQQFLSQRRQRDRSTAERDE

Mucolipin-3, sequence (Q8TDD5 whole entry): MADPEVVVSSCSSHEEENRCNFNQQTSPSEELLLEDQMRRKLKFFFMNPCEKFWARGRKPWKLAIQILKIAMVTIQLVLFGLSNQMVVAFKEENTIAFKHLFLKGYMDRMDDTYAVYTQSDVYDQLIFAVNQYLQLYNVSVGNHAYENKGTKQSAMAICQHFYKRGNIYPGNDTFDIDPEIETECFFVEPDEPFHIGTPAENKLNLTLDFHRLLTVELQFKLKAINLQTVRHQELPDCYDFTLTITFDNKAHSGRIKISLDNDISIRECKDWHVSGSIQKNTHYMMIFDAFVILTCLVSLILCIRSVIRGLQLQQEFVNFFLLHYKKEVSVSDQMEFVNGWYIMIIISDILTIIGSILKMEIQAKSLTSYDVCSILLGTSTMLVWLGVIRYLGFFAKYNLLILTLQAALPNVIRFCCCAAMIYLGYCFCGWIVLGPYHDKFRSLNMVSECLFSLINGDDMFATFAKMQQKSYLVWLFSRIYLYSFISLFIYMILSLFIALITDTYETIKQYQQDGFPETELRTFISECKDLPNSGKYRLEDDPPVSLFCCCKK

Question: Which results are given for `CCOc1ccc(N(CC(=O)O)S(=O)(=O)c2ccc(F)cc2)cc1`?
Answer: EC50 (Mucolipin-3): > 29.9 µM (not active); EC50 (Ion channel NompC): > 29.9 µM (inactive)
